Tests used:
[1] = tested on: rabbit skin; details: in vivo
[2] = tested on: external auditory canal of rabbit ear; assay: Instillation into Rabbit Ear; format: in vivo; details: four right rabbit ears, up to 5 days
Procedure: DMI was introduced onto the external auditory canal of each of four right rabbit ears. Likewise, four other right rabbit ears were instilled with 0.35 ml of 40% DMI in water.

[3] = tested on: rabbit skin; details: in vivo; remark: listed apart in the source
Procedure: (§1) Groups of four albino rabbits were given dosages of 1.00, 2.15, 4.64 and 10.0 ml per kg, respectively.

[4] = Procedure: The samples were prepared using USP grade aspirin, which was dried at 110° before use. […] Spectrum b was taken after the sample (containing 10% water) was stored at 70° C. for 96 hours.
[5] = tested on: rats; assay: Acute Oral Toxicity--Rat; format: in vivo
Procedure: An approximate oral LD50 of dimethyl isorbide was determined.

[6] = tested on: rabbit skin; assay: Acute Percutaneous Toxicity--Rabbit
Procedure: as §1

[7] = tested on: rabbit eye; assay: Eye Irritation--Rabbit; format: in vivo
Procedure: […] was instilled into the conjunctival sac of the rabbit eye. Over a period of several years two different lots of DMI (designated here merely as A or B) were tested at different times and at various concentrations. […] The following classification of degree of irritancy, according to the terminology of […], was made for the various tests on the unwashed eye: The classification of DMI according to specifications provided in the Federal Hazardous Substances Act for the specified test and concentration are shown below: […]

[8] = Preliminary toxicity of dimethyl isosorbide
Text: We use dimethyl isosorbide (DMI) as the vehicle for the liquid formulation of aspirin. […] When used internally, it is predicted that DMI will be metabolized to form isosorbide, a remedy for diuretic purposes. From the chemical structural point of view, it is seen that DMI is practically inert to aspirin degradation.

[9] = tested on: human skin; assay: Human Patch Tests; format: in vivo
Text: Undiluted dimethyl ether of isosorbide has been tested under a closed patch of human subjects in accordance with the […] patch-test procedure originally designed by the dermatologist, B. Schwartz, M.D., and more recently adapted by R. B. Osbourn, M.D.

What does the source list for `CO[C@H]1CO[C@H]2[C@@H]1OC[C@H]2OC` [Dimethyl isosorbide, dimethyl isosorbide]?
individual score of single positive reading [1]: 1.0; score (edema or erythema) [1]: No score (edema or erythema) was obtained on any of the rabbits; irritation to the integument of the external auditory canal ([2]; 0.35 ml of 40% DMI in water): No irritation to the integument of the external auditory canal was observed; irritation to the integument of the external auditory canal ([2]; DMI): No irritation to the integument of the external auditory canal was observed; erythema [3]: transitory mild to moderate erythema; gross pathological findings [3]: No gross pathological findings; chemical interaction with aspirin / induction of aspirin degradation [4]: does not interact chemically with aspirin, not does it induce the degradation of aspirin; Signs of intoxication [5]: depression, lacrimation, labored respiration, tachcardia and ataxia; classification for acute oral toxicities (Hodge and Sterner) [5]: practically nontoxic; examination of the tissues of the animals that died ([5]; 6.81 and 10.0 ml/kg): hyperemic lungs, slight irritation of the small intestine and congestion of kidneys and adrenals; mortality ([5]; 6.81 and 10.0 ml/kg): all of the 10 rats given the two higher dosages died; survival ([6]; undiluted, 1.00, 2.15, 4.64 and 10.0 ml per kg): All rabbits survived; acute percutaneous toxicity ([6]; undiluted, rabbit skin under rubber dental dam, 24 hours): greater than 10 ml per kg of body weight; Class. as Irritating Code of Federal Regulations ([7]; 40%, lot A, test 1): Negative; No. of Eyes Positive / No. of Eyes Tested CFR ([7]; 40%, lot A, test 1): 0/6; Average Score (out of potential 100) ([7]; 40%, lot A, test 1, 3 eyes, washed 2 sec., 1 hour): 0.0; Average Score (out of potential 100) ([7]; 40%, lot A, test 1, 3 eyes, washed 2 sec., 24 hours): 0.0; Average Score (out of potential 100) ([7]; 40%, lot A, test 1, 3 eyes, washed 2 sec., 48 hours): 0.0; Average Score (out of potential 100) ([7]; 40%, lot A, test 1, 3 eyes, washed 2 sec., 72 hours): 0.0; Average Score (out of potential 100) ([7]; 40%, lot A, test 1, 3 eyes, washed 2 sec., 96 hours): 0.0; Average Score (out of potential 100) ([7]; 40%, lot A, test 1, 3 eyes, washed 2 sec., 7 days): 0.0; Average Score (out of potential 100) ([7]; 40%, lot A, test 1, 6 eyes, unwashed, 1 hour): 0.0; Average Score (out of potential 100) ([7]; 40%, lot A, test 1, 6 eyes, unwashed, 24 hours): 0.0; Average Score (out of potential 100) ([7]; 40%, lot A, test 1, 6 eyes, unwashed, 48 hours): 0.0; Average Score (out of potential 100) ([7]; 40%, lot A, test 1, 6 eyes, unwashed, 72 hours): 0.0; Average Score (out of potential 100) ([7]; 40%, lot A, test 1, 6 eyes, unwashed, 96 hours): 0.0; Average Score (out of potential 100) ([7]; 40%, lot A, test 1, 6 eyes, unwashed, 7 days): 0.0; Classification (Kay and Calandra) ([7]; 40%, lot A, test 1, unwashed eye): Nonirritating; Class. as Irritating Code of Federal Regulations ([7]; 60%, lot A, test 1): Negative; No. of Eyes Positive / No. of Eyes Tested CFR ([7]; 60%, lot A, test 1): 0/6; Average Score (out of potential 100) ([7]; 60%, lot A, test 1, 3 eyes, washed 2 sec., 1 hour): 0.0; Average Score (out of potential 100) ([7]; 60%, lot A, test 1, 3 eyes, washed 2 sec., 24 hours): 0.0; Average Score (out of potential 100) ([7]; 60%, lot A, test 1, 3 eyes, washed 2 sec., 48 hours): 0.0; Average Score (out of potential 100) ([7]; 60%, lot A, test 1, 3 eyes, washed 2 sec., 72 hours): 0.0; Average Score (out of potential 100) ([7]; 60%, lot A, test 1, 3 eyes, washed 2 sec., 96 hours): 0.0; Average Score (out of potential 100) ([7]; 60%, lot A, test 1, 3 eyes, washed 2 sec., 7 days): 0.0; Average Score (out of potential 100) ([7]; 60%, lot A, test 1, 6 eyes, unwashed, 1 hour): 0.0; Average Score (out of potential 100) ([7]; 60%, lot A, test 1, 6 eyes, unwashed, 24 hours): 0.0; Average Score (out of potential 100) ([7]; 60%, lot A, test 1, 6 eyes, unwashed, 48 hours): 0.0; Average Score (out of potential 100) ([7]; 60%, lot A, test 1, 6 eyes, unwashed, 72 hours): 0.0; Average Score (out of potential 100) ([7]; 60%, lot A, test 1, 6 eyes, unwashed, 96 hours): 0.0; Average Score (out of potential 100) ([7]; 60%, lot A, test 1, 6 eyes, unwashed, 7 days): 0.0; Classification (Kay and Calandra) ([7]; 60%, lot A, test 1, unwashed eye): Nonirritating; Class. as Irritating Code of Federal Regulations ([7]; 80%, lot A, test 1): Negative; No. of Eyes Positive / No. of Eyes Tested CFR ([7]; 80%, lot A, test 1): 0/6; Average Score (out of potential 100) ([7]; 80%, lot A, test 1, 3 eyes, washed 2 sec., 1 hour): 0.0; Average Score (out of potential 100) ([7]; 80%, lot A, test 1, 3 eyes, washed 2 sec., 24 hours): 0.0; Average Score (out of potential 100) ([7]; 80%, lot A, test 1, 3 eyes, washed 2 sec., 48 hours): 0.0; Average Score (out of potential 100) ([7]; 80%, lot A, test 1, 3 eyes, washed 2 sec., 72 hours): 0.0; Average Score (out of potential 100) ([7]; 80%, lot A, test 1, 3 eyes, washed 2 sec., 96 hours): 0.0; Average Score (out of potential 100) ([7]; 80%, lot A, test 1, 3 eyes, washed 2 sec., 7 days): 0.0; Average Score (out of potential 100) ([7]; 80%, lot A, test 1, 6 eyes, unwashed, 1 hour): 0.0; Average Score (out of potential 100) ([7]; 80%, lot A, test 1, 6 eyes, unwashed, 24 hours): 0.0; Average Score (out of potential 100) ([7]; 80%, lot A, test 1, 6 eyes, unwashed, 48 hours): 0.0; Average Score (out of potential 100) ([7]; 80%, lot A, test 1, 6 eyes, unwashed, 72 hours): 0.0; Average Score (out of potential 100) ([7]; 80%, lot A, test 1, 6 eyes, unwashed, 96 hours): 0.0; Average Score (out of potential 100) ([7]; 80%, lot A, test 1, 6 eyes, unwashed, 7 days): 0.0; Classification (Kay and Calandra) ([7]; 80%, lot A, test 1, unwashed eye): Nonirritating; Class. as Irritating Code of Federal Regulations ([7]; 100%, lot A, test 1): Positive; No. of Eyes Positive / No. of Eyes Tested CFR ([7]; 100%, lot A, test 1): 4/6; Average Score (out of potential 100) ([7]; 100%, lot A, test 1, 3 eyes, washed 2 sec., 1 hour): 0.0; Average Score (out of potential 100) ([7]; 100%, lot A, test 1, 3 eyes, washed 2 sec., 24 hours): 0.0; Average Score (out of potential 100) ([7]; 100%, lot A, test 1, 3 eyes, washed 2 sec., 48 hours): 0.0; Average Score (out of potential 100) ([7]; 100%, lot A, test 1, 3 eyes, washed 2 sec., 72 hours): 0.0; Average Score (out of potential 100) ([7]; 100%, lot A, test 1, 3 eyes, washed 2 sec., 96 hours): 0.0; Average Score (out of potential 100) ([7]; 100%, lot A, test 1, 3 eyes, washed 2 sec., 7 days): 0.0; Average Score (out of potential 100) ([7]; 100%, lot A, test 1, 6 eyes, unwashed, 1 hour): 0.0; Average Score (out of potential 100) ([7]; 100%, lot A, test 1, 6 eyes, unwashed, 24 hours): 15.0; Average Score (out of potential 100) ([7]; 100%, lot A, test 1, 6 eyes, unwashed, 48 hours): 10.3; Average Score (out of potential 100) ([7]; 100%, lot A, test 1, 6 eyes, unwashed, 72 hours): 10.0; Average Score (out of potential 100) ([7]; 100%, lot A, test 1, 6 eyes, unwashed, 96 hours): 10.0; Average Score (out of potential 100) ([7]; 100%, lot A, test 1, 6 eyes, unwashed, 7 days): 10.0; score of one eye (zero) ([7]; 100%, lot A, test 1, unwashed): zero; Classification (Kay and Calandra) ([7]; 100%, lot A, test 1, unwashed eye): Cannot be classified; maximum score of other eyes ([7]; 100%, lot A, test 1, unwashed, no other eye greater at any reading): ≤ 14; score of one eye ([7]; 100%, lot A, test 1, unwashed, consistent score): 60-64; Class. as Irritating Code of Federal Regulations ([7]; 100%, lot A, test 2): Negative; No. of Eyes Positive / No. of Eyes Tested CFR ([7]; 100%, lot A, test 2): 0/6; Average Score (out of potential 100) ([7]; 100%, lot A, test 2, 3 eyes, washed 2 sec., 1 hour): 0.0; Average Score (out of potential 100) ([7]; 100%, lot A, test 2, 3 eyes, washed 2 sec., 24 hours): 0.0; Average Score (out of potential 100) ([7]; 100%, lot A, test 2, 3 eyes, washed 2 sec., 48 hours): 0.0; Average Score (out of potential 100) ([7]; 100%, lot A, test 2, 3 eyes, washed 2 sec., 72 hours): 0.0; Average Score (out of potential 100) ([7]; 100%, lot A, test 2, 3 eyes, washed 2 sec., 96 hours): 0.0; Average Score (out of potential 100) ([7]; 100%, lot A, test 2, 3 eyes, washed 2 sec., 7 days): 0.0; Average Score (out of potential 100) ([7]; 100%, lot A, test 2, 6 eyes, unwashed, 1 hour): 0.0; Average Score (out of potential 100) ([7]; 100%, lot A, test 2, 6 eyes, unwashed, 24 hours): 0.0; Average Score (out of potential 100) ([7]; 100%, lot A, test 2, 6 eyes, unwashed, 48 hours): 0.0; Average Score (out of potential 100) ([7]; 100%, lot A, test 2, 6 eyes, unwashed, 72 hours): 0.0; Average Score (out of potential 100) ([7]; 100%, lot A, test 2, 6 eyes, unwashed, 96 hours): 0.0; Average Score (out of potential 100) ([7]; 100%, lot A, test 2, 6 eyes, unwashed, 7 days): 0.0; Classification (Kay and Calandra) ([7]; 100%, lot A, test 2, unwashed eye): Nonirritating; Class. as Irritating Code of Federal Regulations ([7]; 100%, lot B, test 1): Negative; No. of Eyes Positive / No. of Eyes Tested CFR ([7]; 100%, lot B, test 1): 0/6; Average Score (out of potential 100) ([7]; 100%, lot B, test 1, 3 eyes, washed 2 sec., 1 hour): 2.7; Average Score (out of potential 100) ([7]; 100%, lot B, test 1, 3 eyes, washed 2 sec., 24 hours): 18.0; Average Score (out of potential 100) ([7]; 100%, lot B, test 1, 3 eyes, washed 2 sec., 48 hours): 17.3; Average Score (out of potential 100) ([7]; 100%, lot B, test 1, 3 eyes, washed 2 sec., 72 hours): 9.4; Average Score (out of potential 100) ([7]; 100%, lot B, test 1, 3 eyes, washed 2 sec., 96 hours): 8.7; Average Score (out of potential 100) ([7]; 100%, lot B, test 1, 3 eyes, washed 2 sec., 7 days): 0.0; Average Score (out of potential 100) ([7]; 100%, lot B, test 1, 6 eyes, unwashed, 1 hour): 3.7; Average Score (out of potential 100) ([7]; 100%, lot B, test 1, 6 eyes, unwashed, 24 hours): 11.3; Average Score (out of potential 100) ([7]; 100%, lot B, test 1, 6 eyes, unwashed, 48 hours): 5.6; Average Score (out of potential 100) ([7]; 100%, lot B, test 1, 6 eyes, unwashed, 72 hours): 5.0; Average Score (out of potential 100) ([7]; 100%, lot B, test 1, 6 eyes, unwashed, 96 hours): 5.0; Average Score (out of potential 100) ([7]; 100%, lot B, test 1, 6 eyes, unwashed, 7 days): 4.6; score of one other eye (zero) ([7]; 100%, lot B, test 1, unwashed): zero; Classification (Kay and Calandra) ([7]; 100%, lot B, test 1, unwashed eye): Mildly irritating; score of one eye ([7]; 100%, lot B, test 1, unwashed, consistently): 28-30; variability in response of individual rabbit eyes ([7]; undiluted): considerable variability in the response of individual rabbit eyes; toxicity (preliminary studies) [8]: practically nontoxic; No. of Reactors/No. of Subj. Tested, 1st Appl. ([9]; 100%, closed patch): 0/200; No. of Reactors/No. of Subj. Tested, Both Appl. ([9]; 100%, closed patch): 2/200; grade of reaction of the two reactors ([9]; second application only, two subjects): questionable (1) reaction; retest of the two reactors ([9]; semiclosed patch, another site, 48 hours later): both were negative 48 hours; primary irritant / skin sensitizer conclusion ([9]; undiluted, human skin): neither a primary irritant to the human skin nor a skin sensitizer
